Experiment [1] concerns the target IRAK4 (Homo sapiens (Human), UniProt Q9NWZ3). Briefly: IRAK4 Inhibition Assay. The class given is biochemical. To be noted: IRAK4 Inhibition Assay; ATP 500 μM; read-out: IRAK4 IC50. Summed up:
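Mobility-shift readout: fluorescent substrate and phosphoproduct resolved electrophoretically on Caliper LabChip 3000 after EDTA quench (35 mM). Enzyme reaction of IRAK4, substrates and test compound ran 60 min at room temperature.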

Experiment [2] relates to TLR2 induced IL-6 in peripheral blood mononuclear cells (PBMCs). Kind of experiment: PBMC TLR2 Induced IL-6 Assay. The class given is cell-based, human. To be noted: Homo sapiens, PBMC, PBMC TLR2 Induced IL-6 Assay; lipoteichoic acid stimulation, IL-6 by ELISA; read-out: Cell EC50. Summed up:
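Lipoteichoic acid at 10 µg/ml served as TLR2 stimulus for 5 hours, following a 30-minute compound pretreatment at 37° C. Cells were Ficoll-isolated human PBMCs, 250000 cells/well, cultured in RPMI plus 10% heat-inactivated FCS.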
(In general: ELISA stands for enzyme-linked immunosorbent assay.)

Chain of IRAK4 (Q9NWZ3 whole entry, species assumed): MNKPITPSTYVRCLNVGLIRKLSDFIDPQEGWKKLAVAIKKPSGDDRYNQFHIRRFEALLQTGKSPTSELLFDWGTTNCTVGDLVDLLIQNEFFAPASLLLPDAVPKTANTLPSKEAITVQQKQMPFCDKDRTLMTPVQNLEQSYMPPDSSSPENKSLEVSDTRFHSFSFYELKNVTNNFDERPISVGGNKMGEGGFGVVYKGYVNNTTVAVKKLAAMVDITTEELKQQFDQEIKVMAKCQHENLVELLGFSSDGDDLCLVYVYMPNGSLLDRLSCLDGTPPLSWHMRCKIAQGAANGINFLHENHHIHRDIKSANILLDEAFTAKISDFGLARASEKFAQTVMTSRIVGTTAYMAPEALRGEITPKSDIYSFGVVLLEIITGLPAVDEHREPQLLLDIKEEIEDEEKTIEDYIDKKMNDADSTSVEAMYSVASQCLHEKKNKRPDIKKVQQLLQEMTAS

For orientation: IC50 means the concentration that gives 50% inhibition. In general, EC50 refers to the concentration at which the effect is half-maximal. With `C[C@H](CF)Nc1cc(-n2ccc3cc(C#N)cnc32)ncc1C(=O)NC[C@@H](F)C(C)(C)O` [Example 118, 6-(5-cyano-1H-pyrrolo[2,3-b]pyridin-1-yl)-N—((R)-2-fluoro-3-hydroxy-3-methylbutyl)-4-(((R)-1-fluoropropan-2-yl)amino)nicotinamide], the IC50 in experiment [1] was found to be 0.0018 µM. For the same compound, the EC50 in experiment [2] turned out to be 0.018 µM.
`C[C@@H](CF)Nc1cc(-n2ccc3cc(C#N)cnc32)ncc1C(=O)NCCC(C)(C)O` [Example 119, (S)-6-(5-cyano-1H-pyrrolo[2,3-b]pyridin-1-yl)-4-((1-fluoropropan-2-yl)amino)-N-(3-hydroxy-3-methylbutyl)nicotinamide]: the IC50 in experiment [1] turned out to be 0.0044 µM. The 50% effective concentration (EC50) in experiment [2] turned out to be 0.091 µM.
For `C[C@H](CF)Nc1cc(-n2ccc3cc(C#N)cnc32)ncc1C(=O)NCCC(C)(C)O` [Example 120, (R)-6-(5-cyano-1H-pyrrolo[2,3-b]pyridin-1-yl)-4-((1-fluoropropan-2-yl)amino)-N-(3-hydroxy-3-methylbutyl)nicotinamide], the IC50 in experiment [1] was found to be 0.0051 µM. The EC50 in experiment [2] amounted to 0.105 µM.
The matching figures for `C[C@@H](CF)Nc1cc(-n2ncc3cc(C#N)cnc32)ncc1C(=O)NC[C@@H](F)C(C)(C)O` [Example 121, 6-(5-cyano-1H-pyrazolo[3,4-b]pyridin-1-yl)-N—((R)-2-fluoro-3-hydroxy-3-methylbutyl)-4-(((S)-1-fluoropropan-2-yl)amino) nicotinamide]: 0.0052 µM and 0.112 µM.
Take `CNC(=O)[C@H]1CC[C@H](NC(=O)c2cnc(-n3ncc4cc(C#N)cnc43)cc2N[C@@H](C)CF)CC1` [Example 122, 6-(5-cyano-1H-pyrazolo[3,4-b]pyridin-1-yl)-4-(((S)-1-fluoropropan-2-yl)amino)-N-((1r,4S)-4-(methylcarbamoyl)cyclohexyl)nicotinamide]: the half-inhibitory concentration (IC50) in experiment [1] was 0.016 µM. Further, the EC50 in experiment [2] turned out to be 0.501 µM.
Turning to `CCNc1cc(-n2ccc3cc(C(N)=O)cnc32)ncc1C(=O)NC[C@@H](F)C(C)(C)O` [Example 123, (R)-1-(4-(Ethylamino)-5-((2-fluoro-3-hydroxy-3-methylbutyl)carbamoyl)pyridin-2-yl)-1H-pyrrolo[2,3-b]pyridine-5-carboxamide], the 50% inhibitory concentration (IC50) in experiment [1] was determined as 0.0045 µM. Further, the EC50 in experiment [2] was determined as 0.128 µM.
For the compound `CC(C)(O)[C@H](F)CNC(=O)c1cnc(-n2ccc3cc(C(N)=O)cnc32)cc1NC1CCC1` [Example 124, (R)-1-(4-(Cyclobutylamino)-5-((2-fluoro-3-hydroxy-3-methylbutyl)carbamoyl)pyridin-2-yl)-1H-pyrrolo[2,3-b]pyridine-5-carboxamide], the IC50 in experiment [1] is 0.0048 µM. In experiment [2], the EC50 was 0.119 µM.
In the case of `CC(=O)OC(C)(C)C(=O)NCCNC(=O)c1cnc(-n2ccc3cc(C#N)cnc32)cc1NC(C)C` [Example 125, 1-((2-(6-(5-Cyano-1H-pyrrolo[2,3-b]pyridin-1-yl)-4-(isopropylamino)nicotinamido)ethyl)amino)-2-methyl-1-oxopropan-2-yl acetate], the IC50 in experiment [1] is 0.0067 µM. In experiment [2], the EC50 came out at 0.202 µM.
For `CC(C)Nc1cc(-n2ccc3cc(C#N)cnc32)ncc1C(=O)NCCNC(=O)C(C)(C)O` [Example 126, 6-(5-Cyano-1H-pyrrolo[2,3-b]pyridin-1-yl)-N-(2-(2-hydroxy-2-methylpropanamido)ethyl)-4-(isopropylamino)nicotinamide], the concentration for half-maximal inhibition (IC50) in experiment [1] was 0.0075 µM. For the same compound, the concentration giving a half-maximal response (EC50) in experiment [2] worked out at 0.15 µM.
As to `COC[C@H](F)CNC(=O)c1cnc(-n2ccc3cc(C#N)cnc32)cc1NC(C)C` [Example 127, (R)-6-(5-Cyano-1H-pyrrolo[2,3-b]pyridin-1-yl)-N-(2-fluoro-3-methoxypropyl)-4-(isopropylamino)nicotinamide], in experiment [1], the IC50 stood at 0.0028 µM. Also, the EC50 in experiment [2] amounted to 0.089 µM.
Take `COC[C@H](F)CNC(=O)c1cnc(-n2ncc3cc(C#N)cnc32)cc1NC(C)C` [Example 128, (R)-6-(5-Cyano-1H-pyrazolo[3,4-b]pyridin-1-yl)-N-(2-fluoro-3-methoxypropyl)-4-(isopropylamino)nicotinamide]: the IC50 in experiment [1] amounted to 0.0089 µM. The EC50 in experiment [2] stood at 0.248 µM.

The values are drawn from patent US9169252B2 (BRISTOL-MYERS SQUIBB COMPANY, priority 2014, dated 2015).
